Test results published in ChEMBL document CHEMBL5042530, “Discovery of Novel Pyridine-Dimethyl-Phenyl-DAPY Hybrids by Molecular Fusing of Methyl-Pyrimidine-DAPYs and Difluoro-Pyridinyl-DAPYs: Improving the Druggability toward High Inhibitory Activity, Solubility, Safety, and PK” (J Med Chem, 2022).
≈ marks a conversion by molar mass, not a printed value.

Assays:
[1] = system: Human immunodeficiency virus 1; assay: Antiviral activity against wild type HIV-1 IIIB infected in human MT4 cells assessed as protection against virus-induced cytotoxicity incubated for 5 days by MTT assay; type: functional, organism-based; settings: Human immunodeficiency virus 1, IIIB, MT4, 120 h
[2] = Selectivity index, ratio of CC50 for cytotoxicity against human MT4 cells to EC50 for antiviral activity against HIV-1 IIIB infected in human MT4 cells; type: toxicity, cell-based; settings: read-out: Ratio CC50/EC50
[3] = system: Human immunodeficiency virus 1; assay: Antiviral activity against HIV-1 harboring RT L100I mutant infected in human MT4 cells assessed as protection against virus-induced cytotoxicity incubated for 5 days by MTT assay; type: functional, organism-based; settings: Human immunodeficiency virus 1, MT4, 120 h
[4] = system: Human immunodeficiency virus 1; assay: Antiviral activity against HIV-1 harboring E138K mutant infected in human MT4 cells assessed as protection against virus-induced cytotoxicity incubated for 5 days by MTT assay; type: functional, organism-based; settings: Human immunodeficiency virus 1, MT4, 120 h
[5] = target: Human immunodeficiency virus type 1 reverse transcriptase (Human immunodeficiency virus 1, UniProt Q72547); assay: Inhibition of recombinant wild type p66/p51 HIV1 reverse transcriptase incubated for 40 mins by picogreen dye-based spectrofluorometric analysis
[6] = system: Human immunodeficiency virus 1; assay: Antiviral activity against HIV-1 harboring Y188L mutant infected in human MT4 cells assessed as protection against virus-induced cytotoxicity incubated for 5 days by MTT assay; type: functional, organism-based; settings: Human immunodeficiency virus 1, MT4, 120 h
[7] = system: Human immunodeficiency virus 1; assay: Antiviral activity against HIV-1 harboring F227L/V106A double mutant infected in human MT4 cells assessed as protection against virus-induced cytotoxicity incubated for 5 days by MTT assay; type: functional, organism-based; settings: Human immunodeficiency virus 1, MT4, 120 h
[8] = Cytotoxicity against human MT4 cells assessed as reduction in cell viability measured after 5 days by MTT assay; type: toxicity, cell-based; settings: time 5 day
[9] = system: Human immunodeficiency virus 1; assay: Antiviral activity against HIV-1 harboring Y181C mutant infected in human MT4 cells assessed as protection against virus-induced cytotoxicity incubated for 5 days by MTT assay; type: functional, organism-based; settings: Human immunodeficiency virus 1, MT4, 120 h
[10] = system: Human immunodeficiency virus 1; assay: Antiviral activity against HIV-1 harboring K103N mutant infected in human MT4 cells assessed as protection against virus-induced cytotoxicity incubated for 5 days by MTT assay; type: functional, organism-based; settings: Human immunodeficiency virus 1, MT4, 120 h
[11] = system: Human immunodeficiency virus 1; assay: Antiviral activity against HIV-1 harboring RES056 mutant infected in human MT4 cells assessed as protection against virus-induced cytotoxicity incubated for 5 days by MTT assay; type: functional, organism-based; settings: Human immunodeficiency virus 1, MT4, 120 h
[12] = Aqueous solubility of the compound in PBS buffer at pH 2 measured after 24 hrs by HPLC-UV analysis; type: physicochemical
[13] = Aqueous solubility of the compound in PBS buffer at pH 7.4 measured after 24 hrs by HPLC-UV analysis; type: physicochemical
[14] = Aqueous solubility of the compound in PBS buffer at pH 7 measured after 24 hrs by HPLC-UV analysis; type: physicochemical

| SMILES | EC50 [1] [nM] | selectivity ratio [2] | EC50 [3] [nM] | EC50 [4] [nM] | IC50 [5] [nM] | EC50 [6] [nM] | EC50 [7] [nM] | CC50 at 120 h [8] [nM] | EC50 [9] [nM] | EC50 [10] [nM] | EC50 [11] [nM] | solubility at 24 h [12] [µg/mL] | solubility at 24 h [13] [µg/mL] | solubility at 24 h [14] [µg/mL] |
| --- | --- | --- | --- | --- | --- | --- | --- | --- | --- | --- | --- | --- | --- | --- |
| Cc1cc(-c2cc(C)c(Nc3ccnc(Nc4ccc(C#N)cc4)n3)c(C)c2)cc(C)n1 | 6.2 | 375 | 260 | 58 | 66.7 | 1840 | 1720 | 2300 | 85 | 33 |  |  |  |  |
| Cc1cc(-c2cc(F)nc(F)c2)cc(C)c1Nc1ccnc(Nc2ccc(C#N)cc2)n1 | 3.6 | 1740 | 91 | 45 | 45.6 |  | 859 | 6300 | 47 | 13 | 620 |  |  |  |
| Cc1cc(-c2cc3ccccc3s2)cc(C)c1Nc1ccnc(Nc2ccc(C#N)cc2)n1 | 36 | 3780 | 713 | 206 | 61.5 | 2820 | 206 | 138000 | 431 | 170 |  |  |  |  |
| Cc1cc(-c2cnc(C#N)nc2)cc(C)c1Nc1ccnc(Nc2ccc(C#N)cc2)n1 | 2 | 1550 | 8.1 | 65 | 39.5 | 766 | 631 | 3100 | 5.9 | 42 | 44 |  |  |  |
| Cc1cc(-c2ccncc2)cc(C)c1Nc1ccnc(Nc2ccc(C#N)cc2)n1.O=S(=O)(O)O |  |  |  |  |  |  |  |  |  |  |  | 1.9 | < 1 | < 1 |
| CS(=O)(=O)O.Cc1cc(-c2ccncc2)cc(C)c1Nc1ccnc(Nc2ccc(C#N)cc2)n1 |  |  |  |  |  |  |  |  |  |  |  | 478 | < 1 | < 1 |
| CC(=O)O.Cc1cc(-c2ccncc2)cc(C)c1Nc1ccnc(Nc2ccc(C#N)cc2)n1 |  |  |  |  |  |  |  |  |  |  |  | 211 | < 1 | < 1 |
| Cc1ncc(-c2cc(C)c(Nc3ccnc(Nc4ccc(C#N)cc4)n3)c(C)c2)cn1 | 1.6 | 2440 | 68 | 24 | 46.7 |  |  | 3900 | 23 | 7.8 | 641 |  |  |  |
| Cc1cc(-c2ccncc2)cc(C)c1Nc1ccnc(Nc2ccc(C#N)cc2)n1.O=C(O)CCC(=O)O |  |  |  |  |  |  |  |  |  |  |  | 157 | < 1 | < 1 |
| Cc1cc(-c2cc(C)c(Nc3ccnc(Nc4ccc(C#N)cc4)n3)c(C)c2)ccn1 | 1.7 | 2880 | 44 | 11 | 35.7 | 229 | 562 | 4900 | 17 | 5.9 | 225 |  |  |  |
| Cc1cc(-c2ccncc2)cc(C)c1Nc1ccnc(Nc2ccc(C#N)cc2)n1 | 1.7 | 3520 | 4.2 | 9.5 | 30.6 | 57 | 299 | 6000 | 6.4 | 2 | 64 | 199 (≈ 507 µM) | < 1 | < 1 |
| COc1ncc(-c2cc(C)c(Nc3ccnc(Nc4ccc(C#N)cc4)n3)c(C)c2)cn1 | 1.6 | 3010 | 38 | 19.7 | 37.8 | 892 | 747 | 4800 | 17 | 6.2 | 204 |  |  |  |
| Br.Cc1cc(-c2ccncc2)cc(C)c1Nc1ccnc(Nc2ccc(C#N)cc2)n1 |  |  |  |  |  |  |  |  |  |  |  | 348 | < 1 | < 1 |
| Cc1cc(-c2ccncc2)cc(C)c1Nc1ccnc(Nc2ccc(C#N)cc2)n1.O=C(O)C(F)(F)F |  |  |  |  |  |  |  |  |  |  |  | 518 | < 1 | < 1 |
| O=C1Nc2ccc(Cl)cc2[C@@](C#CC2CC2)(C(F)(F)F)O1 [EFAVIRENZ] |  |  | 10.7 |  |  |  | 410 | > 6330 |  |  | 560 |  |  |  |
| Cc1cc(-c2ccnc(F)c2)cc(C)c1Nc1ccnc(Nc2ccc(C#N)cc2)n1 | 1.6 | 3720 | 23 | 13 | 32.9 | 313 | 436 | 6000 | 9.4 | 3.6 | 222 |  |  |  |
| Cc1cc(-c2cccs2)cc(C)c1Nc1ccnc(Nc2ccc(C#N)cc2)n1 | 3.5 | 2850 | 52 | 15 | 29 | 232 | 847 | 10000 | 43 | 13 | 853 |  |  |  |
| Cc1cc(-c2cnc(C(F)(F)F)nc2)cc(C)c1Nc1ccnc(Nc2ccc(C#N)cc2)n1 | 5.2 | 951 | 98 | 37 | 64 | 1260 |  | 4900 | 29.8 | 8.4 | 429 |  |  |  |
| Cc1cc(-c2ccnc3ccccc23)cc(C)c1Nc1ccnc(Nc2ccc(C#N)cc2)n1 | 5.7 | 618 | 75 | 36 | 40.7 | 1340 | 1670 | 3500 | 30 | 20 | 274 |  |  |  |
| Cc1cc(-c2cncnc2)cc(C)c1Nc1ccnc(Nc2ccc(C#N)cc2)n1 | 1.7 | 4020 | 113 | 36 | 343 |  |  | 6800 | 48 | 10 | 588 |  |  |  |
| Cc1cnc(Nc2ccc(C#N)cc2)nc1Nc1c(F)cc(-c2cncc(C(F)(F)F)c2)cc1F | 201 | 41 | > 2000 | 482 | 857 | > 2000 |  | 8200 | > 2000 | 631 |  |  |  |  |
| Cc1cc(C#N)cc(C)c1Oc1nc(Nc2ccc(C#N)cc2)nc(N)c1Br [ETRAVIRINE] |  |  | 44.7 |  |  |  | 31 | > 4600 |  |  | 101 |  |  |  |
